This passage reports IC50 results from ChEMBL document CHEMBL1143680, “Alboatisins A-C, ent-atisene diterpenoids from Isodon albopilosus” (J Nat Prod, 2007).

As a reminder, the IC50 is the midpoint of a concentration-inhibition curve.

Assay type in all cases: functional, cell-based
Assay [1] deals with A549. Put plainly: Cytotoxicity against human A549 cells after 72 hrs by SRB assay. The following applies: A549, 72 h.
The test system of assay [2] is HT-29. Nature of the assay: Cytotoxicity against human HT29 cells after 72 hrs by SRB assay. The following applies: HT-29, 72 h. (The SRB assay estimates cell density from bound dye.)
For assay [3], the system named is K562. Put plainly: Cytotoxicity against human K562 cells after 72 hrs by SRB assay. The following applies: K562, 72 h.

Turning to `C=C1C(=O)[C@@]23[C@H](O)C[C@@H]4[C@@](C)(CO)CCC[C@@]4(C)[C@@H]2C[C@@H]1[C@H](O)[C@H]3O` [ALBOATISINS A], the figures for the IC50 in assay [1], in assay [2] and in assay [3] were 10.5 µM, 15.6 µM and 24.6 µM, respectively.
In the same order, the values of `C=C1C(=O)[C@]23C[C@@H](O)[C@H]1C[C@H]2[C@]1(C)CCC[C@](C)(CO)[C@H]1C[C@H]3O` [ALBOATISIN C] are 12.5 µM, 20.6 µM and 28 µM.
Take `C=C1C(=O)[C@@]23[C@H](O)C[C@H]4[C@@](C)(CCC[C@]4(C)C=O)[C@@H]2C[C@@H]1[C@H](O)[C@H]3O` [ALBOATISINS B]: the concentration for half-maximal inhibition (IC50) in assay [1] turned out to be 8.3 µM; in assay [2], 7.9 µM; in assay [3] it was 13.6 µM.
